Reference: patent US10005735B2, “Inhibitors of RPN11” (California Institute of Technology, priority 2015, dated 2018)

Assays:
[1] = target: T1, Rpn11 (Homo sapiens (Human), UniProt O00487); test: Rpn11 activity assay (fluorescence polarization, Ub4-pepOG cleavage by 26S proteasome); format: biochemical; conditions: for Rpn11 assay activity (in words): screening, compared with 8TQ
From the text: Candidate compounds according to embodiments of the present invention were synthesized as described herein. […] In brief, this Rpn11 bioassay employs a fluorescent polarization readout based on the ability of the 26S proteasome to cleave the protein substrate including four tandem ubiquitin proteins fused to a peptide having a unique cysteine labeled with a fluorophore. Cleavage of this substrate by Rpn11 at the junction between the fourth ubiquitin and the peptide, releases the low molecular weight fluorescent peptide. Accordingly, inhibition of fluorescence correlates with inhibition of Rpn11. Inhibition is reported as the half maximal inhibitory concentration (IC50) for the candidate compound.
Rpn11 Activity Assay. […] In brief, in order to measure the Rpn11 activity, a synthetic peptide substrate, termed Ub4-pepOG, was engineered. […] Peptide substrate Ub4-pepOG consists of only 30 amino acids and therefore the decrease of polarization is mainly from deubiquitination but not the proteolysis of the peptide. Fluorescence polarization assay was performed in a low-volume 384 well solid black plate where the components are added in the follow sequence: 1) 5 μl compound in 3% DMSO or 3% DMSO control 2) 5 μl 26S proteasome (Enzo Life Sciences Inc, NY). […] Fluorescence polarization is measured using a PHERAstar (BMG labtech, Ortenberg, Germany) plate reader with excitation of 480 nm and emission of 520 nm filter set. […] Rpn11 activity was normalized to DMSO control and fitted using does-response curve.

[2] = target: Csn5 (Homo sapiens (Human), UniProt Q92905); test: Csn5 activity assay (fluorescence polarization, SCF^skp2-Nedd8OG, COP9 Signalosome Complex); format: biochemical; conditions: Table 2
Procedure: Csn5 Activity Assay. […] In brief, a fluorescent substrate termed SCF^skp2-Nedd8OG was produced to measure CSN5 activity in vitro. This assay measures the decrease in fluorescence polarization due to the decrease in apparent molecular weight of Oregon Green (OG) fluorophore (from the ˜175 kDa substrate to ˜9 kDa Nedd8OG) as a result of Csn5-mediated cleavage of the isopeptide bond that links Nedd8OG to SCF^Skp2. The assay was performed in a low-volume 384 well solid black plate comprising equal volumes of compound, substrate (SCF^skp2-Need8OG) and enzyme (purified COP9 Signalosome Complex, CSN). Fluorescence polarization was recorded using the same setting as for the Rpn11 activity assay.

[3] = target: T1, Rpn11; test: Rpn11 activity assay (fluorescence polarization, Ub4-pepOG cleavage by 26S proteasome); format: biochemical; conditions: does not inhibit Csn5 or AMSH with the same potency as Rpn11
[4] = target: AMSH (Homo sapiens (Human), UniProt O95630); test: AMSH activity assay (DiUb^K63TAMRA cleavage, fluorescence); format: biochemical; conditions: Table 2
AMSH, sequence (O95630 whole entry): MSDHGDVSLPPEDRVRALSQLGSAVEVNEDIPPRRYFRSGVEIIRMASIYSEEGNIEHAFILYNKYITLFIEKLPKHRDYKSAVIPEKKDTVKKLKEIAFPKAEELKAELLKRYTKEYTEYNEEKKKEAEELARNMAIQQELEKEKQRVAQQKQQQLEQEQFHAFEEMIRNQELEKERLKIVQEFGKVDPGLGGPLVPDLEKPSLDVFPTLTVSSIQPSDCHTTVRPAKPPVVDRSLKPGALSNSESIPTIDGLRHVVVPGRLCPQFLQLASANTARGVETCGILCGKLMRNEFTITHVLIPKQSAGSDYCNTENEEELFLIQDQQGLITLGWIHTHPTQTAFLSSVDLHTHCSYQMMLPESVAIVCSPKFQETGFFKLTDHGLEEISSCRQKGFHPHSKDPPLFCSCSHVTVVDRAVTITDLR
From the text: AMSH Activity Assay. AMSH is known to selectively cleave ubiquitin chains in which the ubiquitins are joined via K63 of the proximal ubiquitin linked by an isopeptide bond to the carboxy terminus of the distal ubiquitin. […] In brief, DiUb^K63TAMRA was labeled with quench pairs TAMRA/QXL.

[5] = test system: Ub^G76V-GFP; test: Reporter degradation assay in Hela cells expressing Ub^G76V-GFP; format: cell-based; conditions: Homo sapiens, after MG132 removal, cycloheximide chase
Procedure: Characterization of the Compound Activity in Cells. […] After 4 hours, MG132 was removed and a cycloheximide (CHX) chase was initiated +/− different concentrations of test compound and the rate of reporter degradation was evaluated by monitoring GFP fluorescence by high throughput microscopy. The rate of fluorescence decrease was normalized to DMSO control and analyzed using does-response equation.

[6] = Table 2, 1 mM DTT in assay reduces disulfides to monomeric active species
[7] = Table 1, metal binding pharmacophore fragments

T1 sequence (O00487 whole entry, looked up, the tested form may be a part): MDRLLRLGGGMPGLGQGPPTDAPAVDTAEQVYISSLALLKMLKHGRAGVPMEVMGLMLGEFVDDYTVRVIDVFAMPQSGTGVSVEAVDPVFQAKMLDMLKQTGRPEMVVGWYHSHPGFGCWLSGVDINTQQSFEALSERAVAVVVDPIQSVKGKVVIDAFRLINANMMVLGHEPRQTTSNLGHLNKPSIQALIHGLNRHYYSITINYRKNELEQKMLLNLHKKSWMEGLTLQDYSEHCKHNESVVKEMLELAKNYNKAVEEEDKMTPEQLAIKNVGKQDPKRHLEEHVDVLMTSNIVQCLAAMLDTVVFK

O=C(NCc1cccs1)c1ccc2cccc(SSc3cccc4ccc(C(=O)NCc5cccs5)nc34)c2n1 [8,8′-Disulfanediylbis(N-(thiophen-2-ylmethyl)quinoline-2-carboxamide)]
Rpn11 assay activity (in words) [1]: less active than 8TQ

O=C(NCc1ccccc1)c1ccc2cccc(SSc3cccc4ccc(C(=O)NCc5ccccc5)nc34)c2n1 [8,8′-Disulfanediylbis(N-benzylquinoline-2-carboxamide)]
Rpn11 assay activity (in words) [1]: less active than 8TQ

NC(=O)c1cnc2c(SSc3cccc4cc(C(N)=O)cnc34)cccc2c1 [Compound 1, 8,8′-Disulfanediylbis(quinoline-3-carboxamide)]
IC50 [2]: 15 µM
specificity for Rpn11 versus Csn5 and/or AMSH (in words) [3]: specific inhibitors of Rpn11
IC50 [1, 6]: 1 µM
IC50 [4]: 1.2 µM
IC50 [5]: 1.2 µM

CNC(=O)c1cnc2c(SSc3cccc4cc(C(=O)NC)cnc34)cccc2c1 [Compound 2, 8,8′-Disulfanediylbis(N-methylquinoline-3-carboxamide)]
IC50 [2]: 68 µM
IC50 [4]: 4.8 µM

O=C(Nc1nccs1)c1cnc2c(SSc3cccc4cc(C(=O)Nc5nccs5)cnc34)cccc2c1 [Compound 5, 8,8′-Disulfanediylbis(N-(thiazol-2-yl)quinoline-3-carboxamide)]
IC50 [2]: 32 µM
specificity for Rpn11 versus Csn5 and/or AMSH (in words) [3]: specific inhibitors of Rpn11
IC50 [4]: 3.3 µM

O=C(NCC1CCCO1)c1cnc2c(SSc3cccc4cc(C(=O)NCC5CCCO5)cnc34)cccc2c1 (stereo not shown) [Compound 6, 8,8′-Disulfanediylbis(N-((tetrahydrofuran-2-yl)methyl)quinoline-3-carboxamide)]
IC50 [2]: 41.3 µM
IC50 [1, 6]: 4.6 µM
IC50 [4]: 6.8 µM

O=C(NCc1ccco1)c1cnc2c(SSc3cccc4cc(C(=O)NCc5ccco5)cnc34)cccc2c1 [Compound 7, 8,8′-Disulfanediylbis(N-(furan-2-ylmethyl)quinoline-3-carboxamide)]
IC50 [2]: 0.2 µM
IC50 [1, 6]: 0.9 µM
IC50 [4]: 0.9 µM

O=C(NCc1cccs1)c1cnc2c(SSc3cccc4cc(C(=O)NCc5cccs5)cnc34)cccc2c1 [Compound 8, 8,8′-Disulfanediylbis(N-(thiophen-2-ylmethyl)quinoline-3-carboxamide)]
IC50 [2]: 16 µM
IC50 [1, 6]: 0.8 µM
IC50 [4]: 1.3 µM

Sc1cccc2cccnc12 [Compound 8TQ, 8-thioquinoline, reference compound]
IC50 [1, 7]: 2.8 ± 0.35 µM
Rpn11 assay activity (in words) [1]: highly potent fragment

Sc1ccnc2cccnc12 [Compound 8e, 1,5-Naphthyridine-4-thiol]
IC50 [1, 7]: 15 µM

O=C(NCc1nccs1)c1cnc2c(SSc3cccc4cc(C(=O)NCc5nccs5)cnc34)cccc2c1 [Compound 9, 8,8′-Disulfanediylbis(N-(thiazol-2-ylmethyl)quinoline-3-carboxamide)]
IC50 [2]: 23 µM
specificity for Rpn11 versus Csn5 and/or AMSH (in words) [3]: specific inhibitors of Rpn11
IC50 [4]: 7.8 µM

Cc1ccc2cccc(S)c2n1 [Compound 9c, 2-Methylquinoline-8-thiol]
Rpn11 assay activity (in words) [1]: less active than 8TQ

O=C(NCCc1ccco1)c1cnc2c(SSc3cccc4cc(C(=O)NCCc5ccco5)cnc34)cccc2c1 [Compound 10, 8,8′-Disulfanediylbis(N-(2-(furan-2-yl)ethyl)quinoline-3-carboxamide)]
IC50 [2]: 6.9 µM
IC50 [4]: 1.7 µM
IC50 [5]: 1.4 µM

O=C(NCCc1cccs1)c1cnc2c(SSc3cccc4cc(C(=O)NCCc5cccs5)cnc34)cccc2c1 [Compound 11, 8,8′-Disulfanediylbis(N-(2-(thiophen-2-yl)ethyl)quinoline-3-carboxamide)]
IC50 [2]: 4 µM
specificity for Rpn11 versus Csn5 and/or AMSH (in words) [3]: specific inhibitors of Rpn11
IC50 [1, 6]: 0.3 µM
IC50 [4]: 1.3 µM

O=C(NCCc1nccs1)c1cnc2c(SSc3cccc4cc(C(=O)NCCc5nccs5)cnc34)cccc2c1 [Compound 12, 8,8′-Disulfanediylbis(N-(2-(thiazol-2-yl)ethyl)quinoline-3-carboxamide)]
IC50 [2]: 30 µM
specificity for Rpn11 versus Csn5 and/or AMSH (in words) [3]: specific inhibitors of Rpn11
IC50 [5]: 0.57 µM

O=C(NCc1ccccn1)c1cnc2c(SSc3cccc4cc(C(=O)NCc5ccccn5)cnc34)cccc2c1 [Compound 13, 8,8′-Disulfanediylbis(N-(pyridin-2-ylmethyl)quinoline-3-carboxamide)]
IC50 [2]: 56.7 µM
IC50 [1, 6]: 3.9 µM
IC50 [4]: 16.7 µM
IC50 [5]: > 10 µM

O=C(NCc1cccnc1)c1cnc2c(SSc3cccc4cc(C(=O)NCc5cccnc5)cnc34)cccc2c1 [Compound 14, 8,8′-Disulfanediylbis(N-(pyridin-3-ylmethyl)quinoline-3-carboxamide)]
IC50 [2]: 128 µM
IC50 [1, 6]: 3.1 µM
IC50 [4]: 3.52 µM
IC50 [5]: > 10 µM

O=C(O)c1ccc2cccc(SSc3cccc4ccc(C(=O)O)nc34)c2n1 [Compound 14b, 8,8′-Disulfanediylbis(quinoline-2-carboxylic acid)]
Rpn11 assay activity (in words) [1]: less active than 8TQ

O=C(NCc1ccccc1)c1cnc2c(SSc3cccc4cc(C(=O)NCc5ccccc5)cnc34)cccc2c1 [Compound 16, 8,8′-Disulfanediylbis(N-benzylquinoline-3-carboxamide)]
IC50 [2]: 11 µM
IC50 [1, 6]: 1.1 µM
IC50 [4]: 15 µM
IC50 [5]: > 10 µM

O=C(NCc1ccc(F)cc1)c1cnc2c(SSc3cccc4cc(C(=O)NCc5ccc(F)cc5)cnc34)cccc2c1 [Compound 17, 8,8′-Disulfanediylbis(N-(4-fluorobenzyl)quinoline-3-carboxamide)]
IC50 [2]: 18 µM
specificity for Rpn11 versus Csn5 and/or AMSH (in words) [3]: specific inhibitors of Rpn11
IC50 [4]: 0.85 µM
IC50 [5]: > 10 µM

COc1ccc(CNC(=O)c2cnc3c(SSc4cccc5cc(C(=O)NCc6ccc(OC)cc6)cnc45)cccc3c2)cc1 [Compound 19, 8,8′-Disulfanediylbis(N-(4-methoxybenzyl)quinoline-3-carboxamide)]
IC50 [2]: 0.5 µM
specificity for Rpn11 versus Csn5 and/or AMSH (in words) [3]: specific inhibitors of Rpn11
IC50 [4]: 0.6 µM
IC50 [5]: > 10 µM

O=C(NCc1ccc2c(c1)OCO2)c1cnc2c(SSc3cccc4cc(C(=O)NCc5ccc6c(c5)OCO6)cnc34)cccc2c1 [Compound 20, 8,8′-Disulfanediylbis(N-(benzo[d][1,3]dioxol-5-ylmethyl)quinoline-3-carboxamide)]
IC50 [2]: 7 µM
IC50 [1, 6]: 0.9 µM
IC50 [5]: > 10 µM

O=C(NCc1ccc(N2CCOCC2)cc1)c1cnc2c(SSc3cccc4cc(C(=O)NCc5ccc(N6CCOCC6)cc5)cnc34)cccc2c1 [Compound 21, 8,8′-Disulfanediylbis(N-(4-morpholinobenzyl)quinoline-3-carboxamide)]
IC50 [1, 6]: 0.8 µM
IC50 [5]: > 10 µM

O=C(NCCN1CCOCC1)c1cnc2c(SSc3cccc4cc(C(=O)NCCN5CCOCC5)cnc34)cccc2c1 [Compound 22, 8,8′-Disulfanediylbis(N-(2-morpholinoethyl)quinoline-3-carboxamide)]
IC50 [2]: 99 µM
IC50 [1, 6]: 6.4 µM
IC50 [4]: 25.4 µM
IC50 [5]: > 10 µM

O=C(CCCC[C@@H]1SC[C@@H]2NC(=O)N[C@@H]21)NCCOCCOCCOCCNC(=O)c1cnc2c(S)cccc2c1 [Compound 32]
IC50 [2]: 13.8 µM
IC50 [1, 6]: 0.4 µM
IC50 [4]: 0.4 µM
IC50 [5]: 4.1 µM

COC(=O)c1ccc2cccc(SSc3cccc4ccc(C(=O)OC)nc34)c2n1 [Dimethyl 8,8′-disulfanediylbis(quinoline-2-carboxylate)]
Rpn11 assay activity (in words) [1]: less active than 8TQ

Nc1cccc2cccnc12 [reference compound]
IC50 [1, 7]: > 100 µM

Sc1cccc2ccccc12 [reference compound]
IC50 [1, 7]: > 100 µM

CSc1cccc2cccnc12 [reference compound]
IC50 [1, 7]: > 100 µM

Cc1cccc2cccnc12 [reference compound]
IC50 [1, 7]: > 100 µM

Sc1cccc2ncccc12 [reference compound]
IC50 [1, 7]: > 100 µM

Oc1cccc2cccnc12 [reference compound]
IC50 [1, 7]: > 100 µM
